Source: patent publication US20140370080A1, “HISTONE DEACETYLASE (HDAC) INHIBITORS FOR TREATMENT OF POST-SURGICAL ADHESIONS” (TRUSTEES OF BOSTON UNIVERSITY, priority 2011, published 2014)

Key:
adhesion formation = experiment: Ischemic button model of intraabdominal adhesion formation, adhesion scoring on postoperative day 7; type: in vivo, Male Wistar rats; conditions: for % Reduction (of adhesion formation vs control) / Mean adhesion formation (percentage of ischemic buttons with attached adhesions): rats, single intra-operative intraperitoneal dose (SAHA 50 mg/kg, MS-275 10 mg/kg); for % Reduction (of adhesion formation vs control): postoperative day 7; for Mean adhesion formation (percentage of ischemic buttons with attached adhesions): scored postoperative day 7, N=6; for treatment of surgical adhesions (result in words): single intra-operative dose, FIG. 4
Description: (§1) The surgical procedure described in Chu et al. (Surgery, 2011, 149(6): 801-812), content of which is herein incorporated by reference in its entirety, was used to test the HDAC inhibitors discussed herein. […] Adhesions were induced on the day of operation using our previously described ischemic button model. Animals were killed on postoperative day 7 for adhesion scoring. The effect of the HDAC inhibitors on intestinal wound healing was measured using colonic anastomotic burst pressures.
Male Wistar rats (range, 200-225 g; Charles River Laboratories, Wilmington, Mass.) warehoused at constant room temperature and under 12-hour light/12-hour dark cycles and allowed access to food and water ad libitum. The Institutional Animal Care and Use Committee at the Boston University School of Medicine approved this study, and all procedures described were performed in accordance with recommendations outlined in the Guide for the Care and Use of Laboratory Animals: Eighth Edition (NRC 2011) published by the National Academies of Science.
Intraperitoneal ischemic buttons were created as described in Reed et al. (J. Surgical Res., 2002, 108:165-172), content of which is herein incorporated by reference in its entirety. In brief, after a midline laparotomy, 6 ischemic buttons (3 on each side) were created by ligating 5 mm of parietal peritoneum with 4-0 silk suture. Adhesion formation was quantified in a blinded fashion on postoperative day 7 by scoring the percentage of buttons with attached fibrinous adhesions in each rat. For example, an animal that had adhesions attached to 4 of its 6 ischemic buttons received a score of 66%.

[1] = system: anastomotic wound healing; experiment: Colonic anastomotic burst pressure (intestinal wound healing); type: in vivo, Male Wistar rats; conditions: 50 mg/kg intraperitoneally, single intra-op dose, at 7 days, FIG. 3B
Description: as §1
In the final experiment, the inventors tested the effects of intraperitoneal HDAC inhibitors on anastomotic wound healing. Male Wistar rats were randomized to operative controls (OP Control) or operative treatment with HDAC inhibitor as noted in the figure. […] In brief, after laparotomy and division of the distal colon, an end-to-end colonic anastomosis was created using a single running layer of 7-0 polypropylene suture. Animals were killed 7 days postoperatively and, after removing a 4-cm segment containing the anastomosis, the segment underwent measurements of burst pressure as described in Aarons et al. (Annals of Surgery, 2007, 245(2): 176-184), content of which is incorporated herein by reference in its entirety.

Structure (SMILES) | % Reduction (of adhesion formation vs control) (adhesion formation) [%] | Mean adhesion formation (percentage of ischemic buttons with attached adhesions) (adhesion formation) [%] | treatment of surgical adhesions (result in words) (adhesion formation) | adhesion formation (adhesion formation; 25 mg/kg, three doses (pre-op, intra-op and pre-op), FIG. 2A) | adhesion formation (adhesion formation; 50 mg/kg intraperitoneally, 3 doses (24 hr pre-op, intra-op, 24 hrs post-op), at 7 days, FIG. 1B) | adhesion formation (adhesion formation; 50 mg/kg intraperitoneally, single intra-op dose, at 7 days, FIG. 2A) | adhesion formation (adhesion formation; 100 mg/kg intraperitoneally, 3 doses (24 hr pre-op, intra-op, 24 hrs post-op), at 7 days, FIG. 1A) | adhesion formation (adhesion formation; 200 mg/kg intraperitoneally, 3 doses (24 hr pre-op, intra-op, 24 hrs post-op), FIG. 1A) | anastomotic wound healing (burst pressure) [1]
Nc1ccccc1NC(=O)c1ccc(CNC(=O)OCc2cccnc2)cc1 [MS-275] | 45.16 | 47.2222 | effective |  |  |  |  |  | 
CCCC(CCC)C(=O)O [valproic acid] |  |  |  | effective | significantly reduced | significantly reduced | significantly reduced | effective | did not affect
O=C(CCCCCCC(=O)Nc1ccccc1)NO [SAHA, suberoylanlide hydroxamic acid] | 48.39 | 44.4444 | effective |  |  |  |  |  | 
